Laboratory results as given in patent US20250367166A1, “NEXT GENERATION DIPROVOCIMS THAT ACTIVATE THE INNATE AND ADAPTIVE IMMUNE RESPONSE” (The Scripps Research Institute, priority 2022, published 2025).
Where two headings read alike, the source gives them in different places.

Assays:
TLR1/TLR2 [1] = biological target: TLR1/TLR2 (Homo sapiens, UniProt O60603+Q15399); assay: TNF-α release from PMA-differentiated human THP-1 cells (ELISA); conditions: for Emax: THP-1, 4 h, read-out: Efficacy (magnitude) of response versus diprovocim-1 (100%), THP-1;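 as to all read-outs here: cells exposed to graded compound concentrations for 4 h, TNF-α quantified in supernatant, LPS as positive and DMSO as negative control, values are duplicate means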
TLR1/TLR2 (Homo sapiens, UniProt O60603+Q15399), sequence (Q15399 25-786): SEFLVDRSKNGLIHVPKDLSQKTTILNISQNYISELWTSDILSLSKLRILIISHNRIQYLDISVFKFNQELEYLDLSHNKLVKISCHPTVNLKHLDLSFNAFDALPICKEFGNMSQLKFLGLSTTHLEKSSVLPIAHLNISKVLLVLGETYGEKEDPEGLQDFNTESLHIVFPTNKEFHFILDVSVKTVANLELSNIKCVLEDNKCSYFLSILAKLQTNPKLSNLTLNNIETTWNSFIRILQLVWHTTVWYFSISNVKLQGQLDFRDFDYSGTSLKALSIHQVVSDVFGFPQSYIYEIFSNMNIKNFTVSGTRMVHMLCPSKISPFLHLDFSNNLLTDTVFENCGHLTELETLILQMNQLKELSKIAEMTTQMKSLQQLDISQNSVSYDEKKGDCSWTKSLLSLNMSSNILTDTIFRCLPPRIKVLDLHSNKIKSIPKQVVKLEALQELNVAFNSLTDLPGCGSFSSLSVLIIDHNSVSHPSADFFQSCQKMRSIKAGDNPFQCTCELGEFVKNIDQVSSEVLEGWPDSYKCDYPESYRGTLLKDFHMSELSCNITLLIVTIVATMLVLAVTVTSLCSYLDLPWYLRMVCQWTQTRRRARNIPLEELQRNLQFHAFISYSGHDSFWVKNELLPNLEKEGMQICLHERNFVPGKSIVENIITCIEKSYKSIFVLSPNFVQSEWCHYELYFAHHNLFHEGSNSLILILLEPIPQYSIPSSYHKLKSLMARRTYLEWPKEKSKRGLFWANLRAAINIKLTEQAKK
TLR1/TLR2 (Homo sapiens, UniProt O60603+Q15399), sequence (O60603 21-784): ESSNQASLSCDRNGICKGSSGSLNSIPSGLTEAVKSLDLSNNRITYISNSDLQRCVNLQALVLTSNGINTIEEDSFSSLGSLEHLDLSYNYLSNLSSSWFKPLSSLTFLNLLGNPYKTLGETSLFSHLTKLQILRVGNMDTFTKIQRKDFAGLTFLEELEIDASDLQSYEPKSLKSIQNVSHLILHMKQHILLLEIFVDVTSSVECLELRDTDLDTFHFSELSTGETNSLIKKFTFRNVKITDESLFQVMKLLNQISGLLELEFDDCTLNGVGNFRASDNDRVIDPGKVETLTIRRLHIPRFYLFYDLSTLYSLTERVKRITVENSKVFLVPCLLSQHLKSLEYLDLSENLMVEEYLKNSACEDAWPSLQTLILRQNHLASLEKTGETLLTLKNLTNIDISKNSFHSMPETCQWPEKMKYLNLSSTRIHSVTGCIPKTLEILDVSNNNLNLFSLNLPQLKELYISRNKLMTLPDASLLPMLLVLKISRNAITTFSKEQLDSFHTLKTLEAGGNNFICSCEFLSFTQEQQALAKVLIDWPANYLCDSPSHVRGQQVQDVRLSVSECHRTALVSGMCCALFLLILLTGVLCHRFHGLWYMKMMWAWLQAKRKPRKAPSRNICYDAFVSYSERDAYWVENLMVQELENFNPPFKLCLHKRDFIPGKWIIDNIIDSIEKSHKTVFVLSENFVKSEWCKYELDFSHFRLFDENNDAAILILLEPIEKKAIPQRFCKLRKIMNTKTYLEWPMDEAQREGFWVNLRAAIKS

TLR1/TLR2 [2] = biological target: TLR1/TLR2 (Mus musculus, UniProt Q9EPQ1+Q9QUN7); assay: TNF-α release from thioglycolate-elicited mouse peritoneal macrophages (ELISA); conditions: for Emax: 4 h, read-out: Efficacy (magnitude) of response versus diprovocim-1 (100%), mouse macrophages
TLR1/TLR2 (Mus musculus, UniProt Q9EPQ1+Q9QUN7), sequence (Q9EPQ1 26-795): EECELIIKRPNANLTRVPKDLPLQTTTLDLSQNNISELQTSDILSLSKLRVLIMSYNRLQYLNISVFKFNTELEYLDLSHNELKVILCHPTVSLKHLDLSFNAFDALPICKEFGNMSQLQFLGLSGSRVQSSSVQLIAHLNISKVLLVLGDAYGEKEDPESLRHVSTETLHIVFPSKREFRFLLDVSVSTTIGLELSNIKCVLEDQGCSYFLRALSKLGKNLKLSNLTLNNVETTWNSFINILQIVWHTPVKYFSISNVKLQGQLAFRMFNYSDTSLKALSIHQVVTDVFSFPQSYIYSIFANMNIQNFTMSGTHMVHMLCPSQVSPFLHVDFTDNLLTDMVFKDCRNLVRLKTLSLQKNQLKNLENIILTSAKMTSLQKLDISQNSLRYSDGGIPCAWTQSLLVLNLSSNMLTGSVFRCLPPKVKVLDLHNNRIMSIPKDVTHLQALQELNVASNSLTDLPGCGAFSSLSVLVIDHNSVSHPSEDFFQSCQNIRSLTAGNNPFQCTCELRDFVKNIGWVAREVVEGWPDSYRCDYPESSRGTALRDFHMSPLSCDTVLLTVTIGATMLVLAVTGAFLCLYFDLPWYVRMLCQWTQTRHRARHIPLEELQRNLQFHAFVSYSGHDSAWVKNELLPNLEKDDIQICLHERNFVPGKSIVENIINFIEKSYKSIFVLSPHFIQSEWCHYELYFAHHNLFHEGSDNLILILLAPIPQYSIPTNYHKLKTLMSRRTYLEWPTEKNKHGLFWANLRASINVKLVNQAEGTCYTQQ
TLR1/TLR2 (Mus musculus, UniProt Q9EPQ1+Q9QUN7), sequence (Q9QUN7 25-784): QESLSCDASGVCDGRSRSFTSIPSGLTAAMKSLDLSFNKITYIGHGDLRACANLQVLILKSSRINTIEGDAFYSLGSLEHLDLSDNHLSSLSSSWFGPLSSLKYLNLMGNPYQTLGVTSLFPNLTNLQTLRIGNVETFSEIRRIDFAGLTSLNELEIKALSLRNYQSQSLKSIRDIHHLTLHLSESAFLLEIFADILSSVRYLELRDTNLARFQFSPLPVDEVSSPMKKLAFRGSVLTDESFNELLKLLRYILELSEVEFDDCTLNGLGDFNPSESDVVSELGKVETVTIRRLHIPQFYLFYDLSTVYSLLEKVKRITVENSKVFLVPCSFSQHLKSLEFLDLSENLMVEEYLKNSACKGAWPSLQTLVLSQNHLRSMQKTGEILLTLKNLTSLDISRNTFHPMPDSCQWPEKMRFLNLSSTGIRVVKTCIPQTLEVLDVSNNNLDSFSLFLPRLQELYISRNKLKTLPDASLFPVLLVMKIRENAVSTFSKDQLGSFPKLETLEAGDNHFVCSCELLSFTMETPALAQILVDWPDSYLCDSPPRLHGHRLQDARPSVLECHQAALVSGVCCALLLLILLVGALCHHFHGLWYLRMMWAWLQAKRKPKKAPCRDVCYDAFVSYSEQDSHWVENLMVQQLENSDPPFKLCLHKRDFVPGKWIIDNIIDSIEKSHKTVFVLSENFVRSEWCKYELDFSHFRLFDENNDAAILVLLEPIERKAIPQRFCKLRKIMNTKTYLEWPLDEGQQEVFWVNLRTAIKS
Experimental: Thioglycolate-elicited macrophages were recovered 4 days after i.p. injection of 2 mL BBL thioglycolate medium, brewer modified (4%; BD Biosciences) by peritoneal lavage with 5 mL phosphate buffered saline (PBS). […] Cells were seeded onto 96-well plates at 1×10^3 cells per well and treated with systematically varied concentrations of the candidate compounds (dissolved in DMSO, and final assay DMSO concentrations (0.5%) were kept constant in all experiments) for 4 h. Ultra-pure LPS (dissolved in H2O, Enzo Life Sciences) was assessed alongside the compounds as a positive control and DMSO treated controls. […] Mouse TNF-α in the supernatants was measured by ELISA kits according to the manufacturer's instructions (eBioscience). EC50's were calculated by Graphpad Prism. All data is mean of duplicates and SD is within ±10% of mean. Mouse cells were from wild type C57BL/6J mice.

[3] = read-out: EC50 (nM) (THP-1): EC50 TNF-α release from human THP-1 cells, Table 3
[4] = read-out: EC50 (nM) (mouse): EC50 TNF-α release from mouse macrophages, Table 3
[5] = read-out: EC50 (nM) (THP-1): EC50 TNF-α release from human THP-1 cells, Table 5
[6] = read-out: EC50 (nM) (mouse): EC50 TNF-α release from mouse macrophages, Table 5

| Emax (TLR1/TLR2 [1]) [%] | Emax (TLR1/TLR2 [2]) [%] | EC50 (TLR1/TLR2 [1]; [3]) [nM] | EC50 (TLR1/TLR2 [2]; [4]) [nM] | SMILES | other results |
| --- | --- | --- | --- | --- | --- |
| 110 | 400 |  |  | CC(C)(C)OC(=O)C(=O)NCC(=O)OCCCCCCCCCCCCNC(=O)[C@@H]1CN(C(=O)c2ccc(C(=O)N3C[C@@H](C(=O)N[C@H]4C[C@@H]4c4ccccc4)[C@H](C(=O)N[C@H]4C[C@@H]4c4ccccc4)C3)cc2)C[C@H]1C(=O)N[C@H]1C[C@@H]1c1ccccc1 [Compound 83, tert-Butyl 2-((2-((12-((3S,4S)-1-(4-((3S,4S)-3,4-bis(((1S,2R)-2-phenylcyclopropyl)carbamoyl)-pyrrolidine-1-carbonyl)benzoyl)-4-(((1S,2R)-2-phenylcyclopropyl)carbamoyl)pyrrolidine-3-carboxamido)dodecyl)oxy)-2-oxoethyl)amino)-2-oxoacetate] | EC50 (TLR1/TLR2 [1]; read-out: EC50 (nM) (THP-1): EC50 TNF-α release from human THP-1 cells, Table 6): 0.54 nM; EC50 (TLR1/TLR2 [2]; read-out: EC50 (nM) (mouse): EC50 TNF-α release from mouse macrophages, Table 6): 16 nM |
| 100 | 140 | 0.05 | 4.7 | CN(C)CC(=O)OCCCCCCCCCCCCNC(=O)[C@@H]1CN(C(=O)c2ccc(C(=O)N3C[C@@H](C(=O)N[C@H]4C[C@@H]4c4ccccc4)[C@H](C(=O)N[C@H]4C[C@@H]4c4ccccc4)C3)cc2)C[C@H]1C(=O)N[C@H]1C[C@@H]1c1ccccc1 [Compound 44, 12-((3S,4S)-1-(4-((3S,4S)-3,4-Bis(((1S,2R)-2-phenylcyclopropyl)carbamoyl)pyrrolidine-1-carbonyl)benzoyl)-4-(((1S,2R)-2-phenylcyclo-propyl)carbamoyl)pyrrolidine-3-carboxamido)-dodecyl 2-(dimethylamino)acetate] | EC50 (TLR1/TLR2 [1]): 0.05 to 0.2 nM; EC50 (TLR1/TLR2 [2]): 0.7 to 5 nM |
| 90 | 180 | 0.1 | 5 | CC(=O)NCC(=O)OCCCCCCCCCCCCNC(=O)[C@@H]1CN(C(=O)c2ccc(C(=O)N3C[C@@H](C(=O)N[C@H]4C[C@@H]4c4ccccc4)[C@H](C(=O)N[C@H]4C[C@@H]4c4ccccc4)C3)cc2)C[C@H]1C(=O)N[C@H]1C[C@@H]1c1ccccc1 [Compound 40, 12-((3S,4S)-1-(4-((3S,4S)-3,4-Bis(((1S,2R)-2-phenyl-cyclopropyl)carbamoyl)pyrrolidine-1-carbonyl)-benzoyl)-4-(((1S,2R)-2-phenylcyclopropyl)-carbamoyl)pyrrolidine-3-carboxamido)-dodecyl 2-acetamidoacetate] |  |
| 90 | 110 | 0.21 | 1.2 | O=C(NCCCCCCCCCCCCO)[C@@H]1CN(C(=O)c2ccc(C(=O)N3C[C@@H](C(=O)N[C@H]4C[C@@H]4c4ccccc4)[C@H](C(=O)N[C@H]4C[C@@H]4c4ccccc4)C3)cc2)C[C@H]1C(=O)N[C@H]1C[C@@H]1c1ccccc1 [Compound 7, (3S,4S)-1-(4-((3S,4S)-3,4-Bis(((1S,2R)-2-phenyl-cyclopropyl)carbamoyl)pyrrolidine-1-carbonyl)-benzoyl)-N^3-(12-hydroxydodecyl)-N^4-((1S,2R)-2-phenyl-cyclo-propyl)pyrrolidine-3,4-dicarboxamide] |  |
| 110 | 110 | 1.8 | 6.2 | CC(C)(C)C(=O)NCC(=O)OCCCCCCCCCCCCNC(=O)[C@@H]1CN(C(=O)c2ccc(C(=O)N3C[C@@H](C(=O)N[C@H]4C[C@@H]4c4ccccc4)[C@H](C(=O)N[C@H]4C[C@@H]4c4ccccc4)C3)cc2)C[C@H]1C(=O)N[C@H]1C[C@@H]1c1ccccc1 [Compound 42, 12-((3S,4S)-1-(4-((3S,4S)-3,4-Bis(((1S,2R)-2-phenylcyclopropyl)carbamoyl)pyrrolidine-1-carbonyl)benzoyl)-4-(((1S,2R)-2-phenylcyclopropyl)carbamoyl)pyrrolidine-3-carboxamido)-dodecyl 2-pivalamidoacetate] |  |
| 100 | 220 | 3 | 6.3 | CC(C)(C)OC(=O)NCCOCCCCCCCCCCCCNC(=O)[C@@H]1CN(C(=O)c2ccc(C(=O)N3C[C@@H](C(=O)N[C@H]4C[C@@H]4c4ccccc4)[C@H](C(=O)N[C@H]4C[C@@H]4c4ccccc4)C3)cc2)C[C@H]1C(=O)N[C@H]1C[C@@H]1c1ccccc1 [Compound 48, tert-Butyl (2-((12-((3S,4S)-1-(4-((3S,4S)-3,4-bis(((1S,2R)-2-phenylcyclopropyl)carbamoyl)-pyrrolidine-1-carbonyl)-benzoyl)-4-(((1S,2R)-2-phenylcyclopropyl)carbamoyl)pyrrolidine-3-carbox-amido)dodecyl)oxy)ethyl)carbamate] |  |
| 100 | 300 | 0.27 | 3.4 | O=C(CNC(=O)OCC(Cl)(Cl)Cl)OCCCCCCCCCCCCNC(=O)[C@@H]1CN(C(=O)c2ccc(C(=O)N3C[C@@H](C(=O)N[C@H]4C[C@@H]4c4ccccc4)[C@H](C(=O)N[C@H]4C[C@@H]4c4ccccc4)C3)cc2)C[C@H]1C(=O)N[C@H]1C[C@@H]1c1ccccc1 [Compound 37, 12-((3S,4S)-1-(4-((3S,4S)-3,4-Bis(((1S,2R)-2-phenyl-cyclopropyl)carbamoyl)pyrrolidine-1-carbonyl)benzoyl)-4-(((1S,2R)-2-phenylcyclopropyl)carbamoyl)pyrrolidine-3-carboxamido)-dodecyl 2-(((2,2,2-trichloroethoxy)-carbonyl)amino)acetate] |  |
| 90 | 90 |  |  | CC(C)(C)OC(=O)NCC(=O)NCCCCCCCCCCCCNC(=O)[C@@H]1CN(C(=O)c2ccc(C(=O)N3C[C@@H](C(=O)N[C@H]4C[C@@H]4c4ccccc4)[C@H](C(=O)N[C@H]4C[C@@H]4c4ccccc4)C3)cc2)C[C@H]1C(=O)N[C@H]1C[C@@H]1c1ccccc1 [Compound 18, tert-Butyl (2-((12-((3S,4S)-1-(4-((3S,4S)-3,4-bis-(((1S,2R)-2-phenylcyclopropyl)carbamoyl)pyrrolidine-1-carbonyl)-benzoyl)-4-(((1S,2R)-2-phenyl-cyclopropyl)-carbamoyl)pyrrolidine-3-carboxamido)-dodecyl)amino)-2-oxoethyl)carbamate] | EC50 (TLR1/TLR2 [1]; read-out: EC50 (nM) (THP-1): EC50 TNF-α release from human THP-1 cells, Table 1): 0.33 nM; EC50 (TLR1/TLR2 [2]; read-out: EC50 (nM) (mouse): EC50 TNF-α release from mouse macrophages, Table 1): 170 nM |
| 100 | 140 | 0.2 | 0.7 | O=C(CO)OCCCCCCCCCCCCNC(=O)[C@@H]1CN(C(=O)c2ccc(C(=O)N3C[C@@H](C(=O)N[C@H]4C[C@@H]4c4ccccc4)[C@H](C(=O)N[C@H]4C[C@@H]4c4ccccc4)C3)cc2)C[C@H]1C(=O)N[C@H]1C[C@@H]1c1ccccc1 [Compound 45, 12-((3S,4S)-1-(4-((3S,4S)-3,4-Bis(((1S,2R)-2-phenylcyclopropyl)carbamoyl)pyrrolidine-1-carbonyl)benzoyl)-4-(((1S,2R)-2-phenylcyclo-propyl)carbamoyl)pyrrolidine-3-carboxamido)dodecyl 2-hydroxyacetate] | EC50 (TLR1/TLR2 [1]): 0.05 to 0.2 nM; EC50 (TLR1/TLR2 [2]): 0.7 to 5 nM |
| 90 | 150 |  |  | CC(C)(C)OC(=O)NCCOCCOCCOCCOCCC(=O)OCCCCCCCCCCCCNC(=O)[C@@H]1CN(C(=O)c2ccc(C(=O)N3C[C@@H](C(=O)N[C@H]4C[C@@H]4c4ccccc4)[C@H](C(=O)N[C@H]4C[C@@H]4c4ccccc4)C3)cc2)C[C@H]1C(=O)N[C@H]1C[C@@H]1c1ccccc1 [Compound 55, 12-((3S,4S)-1-(4-((3S,4S)-3,4-Bis(((1S,2R)-2-phenyl-cyclopropyl)carbamoyl)pyrrolidine-1-carbonyl)-benzoyl)-4-(((1S,2R)-2-phenylcyclopropyl)carbamoyl)-pyrrolidine-3-carboxamido)-dodecyl 2,2-dimethyl-4-oxo-3,8,11,14,17-pentaoxa-5-azaicosan-20-oate] | reduction in activity relative to diprovocim-1 (TLR1/TLR2 [1]): two-fold reduction in activity; EC50 (TLR1/TLR2 [1]; read-out: EC50 (nM) (THP-1): EC50 TNF-α release from human THP-1 cells, Table 4): 0.26 nM; EC50 (TLR1/TLR2 [2]; read-out: EC50 (nM) (mouse): EC50 TNF-α release from mouse macrophages, Table 4): 3.4 nM |

| SMILES | Emax (TLR1/TLR2 [1]) [%] | Emax (TLR1/TLR2 [2]) [%] | EC50 (TLR1/TLR2 [1]; [3]) [nM] | EC50 (TLR1/TLR2 [2]; [4]) [nM] | other results |
| --- | --- | --- | --- | --- | --- |
| CC(C)(C)OC(=O)NC1(C(=O)OCCCCCCCCCCCCNC(=O)[C@@H]2CN(C(=O)c3ccc(C(=O)N4C[C@@H](C(=O)N[C@H]5C[C@@H]5c5ccccc5)[C@H](C(=O)N[C@H]5C[C@@H]5c5ccccc5)C4)cc3)C[C@H]2C(=O)N[C@H]2C[C@@H]2c2ccccc2)CC1 [Compound 62, 12-((3S,4S)-1-(4-((3S,4S)-3,4-Bis(((1S,2R)-2-phenylcyclopropyl)carbamoyl)pyrrolidine-1-carbonyl)-benzoyl)-4-(((1S,2R)-2-phenylcyclopropyl)carbamoyl)-pyrrolidine-3-carboxamido)-dodecyl 1-((tert-butoxy-carbonyl)amino)cyclopropanecarboxylate] | 100 | 220 |  |  | EC50 (TLR1/TLR2 [1]; [5]): 5 nM; EC50 (TLR1/TLR2 [2]; [6]): 10 nM |
| CC(C)(C)OC(=O)N[C@@H](CCC(=O)OCc1ccccc1)C(=O)OCCCCCCCCCCCCNC(=O)[C@@H]1CN(C(=O)c2ccc(C(=O)N3C[C@@H](C(=O)N[C@H]4C[C@@H]4c4ccccc4)[C@H](C(=O)N[C@H]4C[C@@H]4c4ccccc4)C3)cc2)C[C@H]1C(=O)N[C@H]1C[C@@H]1c1ccccc1 [Compound 66, (S)-5-Benzyl 1-(12-((3S,4S)-1-(4-((3S,4S)-3,4-bis-(((1S,2R)-2-phenylcyclopropyl)carbamoyl)-pyrrolidine-1-carbonyl)-benzoyl)-4-(((1S,2R)-2-phenylcyclopropyl)-carbamoyl)pyrrolidine-3-carboxamido)dodecyl) 2-((tert-butoxycarbonyl)-amino)pentanedioate] | 100 | 210 |  |  | EC50 (TLR1/TLR2 [1]; [5]): 39 nM; EC50 (TLR1/TLR2 [2]; [6]): 450 nM |
